One molecule from patent US20090023646A1, “GHRH analogues” (Centre Hospitalier de L'Universite de Montreal (CHUM), priority 2002, published 2009) can be followed below.

Square brackets hold non-standard residues; d marks the D form. Peptide text beside a SMILES is read from it.

In series [1] the test system is adult female rats. The series can be described thus: In vivo GH secretion after single IV or SC injection in female rats. Details: species or system rat. On the procedure: The ability of human GHRH analogue #5 (human [D-Ala^2, D-Tyr^10, D-Ala^15, Lys^22] GHRH (1-29)NH2 analogue) to stimulate GH secretion was studied in adult female rats (26-34 weeks at onset of treatment) and in a male Beagle dog.
Human GHRH analogue #5 in 0.9% sodium chloride for injection USP was administered once either by intravenous (IV) or subcutaneous (SC) injection to female rats followed by a 14-day observation period, as shown in Table 2. Prior to administration, all dosing formulations were filtered using a 0.22 μm filter to ensure sterility. The actual amount of GHRH analogue #5 administered was calculated and adjusted based on the animal's most recent body weight. Dosing started at approximately the same time each day, commencing at 9:00 am±30 minutes.
For pharmacodynamic investigations, blood samples (approximately 1.3 ml) were collected from 2 animals per group per time point (maximum 3 time points/animal) via a jugular venipuncture at the following time points: pre-dose, 4, 10, 15, 45 minutes and 5 hours post dosing. […]
Plasma GH was determined by Linco Diagnostic Services using their own kit.
Linco's Rat Growth Hormone radioimmunoassay kit (RIA) (RGH-45HK) is intended for the quantitative determination of Rat Growth Hormone in serum, plasma, and tissue culture media. […]

The nature of series [2]: in vitro. Conditions: male, human, plasma.
Procedure: (§1) Ten μl of a 300 M solution of hGHRH (1-29)NH2 or of a GHRH analogue was solubilized in dimethylsulfoxide (DMSO) and incubated in one of the following conditions: a—190 μl serum (1/100 dilution in picopure water) from 2-month-old male Sprague Dawley rats, at 37° C. for 0, 8, 15, 30 or 60 min, in polypropylene tubes; b—190 μl of human healthy volunteer plasma (from Human Whole Blood Na EDTA, males, drug free (Algorithme Pharma Inc.); project: MTL-P2-155; Lot: MTLP2155-01, supplied by LAB Dev Int); and c—190 μl of human healthy volunteer pooled serum, Lot: X409 (supplied by LAB Dev Int), at 37° C. for 0, 60, 120, 180 or 420 min, in polypropylene tubes. Proteolysis was stopped by adding 800 μl of ice-cold stop buffer (potassium-phosphate buffer, acidified to pH 0.8 with trifluoroacetic acid (TFA) and boiling 5 min (rat serum only). After centrifugation (12000 g, 5 min, 4° C.) (rat serum only), serum-peptide mixtures were passed through a conditioned Sep-Pak C-18 cartridge to extract native GHRH or a GHRH analogue residual concentrations from serum proteins. The native GHRH or the analogue was eluted in 2 ml of 50% acetonitrile-0.01% TFA/50% 0.01% aqueous TFA. Two hundred μl of extracted peptide, representing 1 μg of GHRH or analogue at time 0, was quantified by analytical HPLC, using one μ-Bondapak C18 column (10 μm particle size, 0.39×15 cm) (rat serum) or two C18 column in series (human serum and plasma) and a binary solvent system composed of NaClO4 0.01 M, pH 2.5 and acetonitrile. A linear gradient from 30 to 60% acetonitrile over 45 min (rat serum) or 30 to 50% (human serum and plasma) was used.
(§2) More specifically, the values represent the mean, standard deviation and standard error from the mean of 3 to 7 experiments.
The target of series [3] is T1, human GHRH receptor (Homo sapiens, UniProt Q02643).
T1 construct: expressed in transfected cells; host or cells: BHK (baby hamster kidney) 570 cells
T1 sequence (Q02643 23-423): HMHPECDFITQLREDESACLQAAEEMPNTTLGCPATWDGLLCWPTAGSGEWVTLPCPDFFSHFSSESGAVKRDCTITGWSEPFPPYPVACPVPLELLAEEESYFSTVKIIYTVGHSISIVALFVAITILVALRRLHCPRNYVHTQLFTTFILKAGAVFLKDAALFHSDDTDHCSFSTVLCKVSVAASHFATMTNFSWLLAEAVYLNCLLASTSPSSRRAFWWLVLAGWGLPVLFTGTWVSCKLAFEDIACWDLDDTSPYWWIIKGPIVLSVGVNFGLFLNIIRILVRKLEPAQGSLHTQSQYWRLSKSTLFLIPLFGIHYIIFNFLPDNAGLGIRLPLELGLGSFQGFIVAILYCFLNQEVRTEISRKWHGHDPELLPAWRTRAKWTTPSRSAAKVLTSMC
The series can be described thus: Competitive 125I-GHRH binding assay in BHK cell membrane preparations expressing the human GHRH receptor. On the procedure:
Non specific binding was determined in presence of 1 μM hGHRH(1-29)NH2. Incubation was carried out at equilibrium (23° C., 60 min) and stopped by centrifugation (12,000 g, 5 min, at 4° C.). The radioactivity content in pellets was determined by gamma counting. The affinity of hGHRH(1-29) NH2 was tested in each experiment to assess the validity of the assay and determine the relative affinity of the analogues.
Values represent the mean±SEM of 3 experiments performed in triplicate for the analogues and the mean±SEM of 2 experiments performed in triplicate for hGHRH(1-44) NH2.
For the binding assay results presented in Tables 8 to 11, values represent the mean±SEM of 8 independent experiments performed in triplicate for the analogues and the mean±SEM of 4 experiments performed in triplicate for hGHRH(1-29)NH2. […] The relative affinity was obtained by taking the ratio IC50 of hGHRH (1-29)-NH2/IC50 analogue.

Series [4] can be described thus: In vitro proteolysis assay in rat serum. Conditions: mean±SEM. The series is classed as in vitro ADME.
Procedure: Proteolysis was stopped by adding 800 μl of ice-cold stop buffer (potassium-phosphate buffer, acidified to pH 0.8 with trifluoroacetic acid (TFA) and boiling 5 min (rat serum only). After centrifugation (12000 g, 5 min, 4° C.) (rat serum only), serum-peptide mixtures were passed through a conditioned Sep-Pak C-18 cartridge to extract native GHRH or a GHRH analogue residual concentrations from serum proteins. The native GHRH or the analogue was eluted in 2 ml of 50% acetonitrile-0.01% TFA/50% 0.01% aqueous TFA. Two hundred μl of extracted peptide, representing 1 μg of GHRH or analogue at time 0, was quantified by analytical HPLC, using one μ-Bondapak C18 column (10 μm particle size, 0.39×15 cm) (rat serum) or two C18 column in series (human serum and plasma) and a binary solvent system composed of NaClO4 0.01 M, pH 2.5 and acetonitrile. A linear gradient from 30 to 60% acetonitrile over 45 min (rat serum) or 30 to 50% (human serum and plasma) was used.
The nature of series [5]: In vitro proteolysis assay in human serum. The series is classed as in vitro ADME.
Procedure: as §1, §2

For `CC[C@H](C)[C@H](NC(=O)[C@H](C)NC(=O)[C@H](CC(=O)O)NC(=O)[C@@H](C)NC(=O)[C@@H](N)Cc1ccc(O)cc1)C(=O)N[C@@H](Cc1ccccc1)C(=O)N[C@H](C(=O)N[C@@H](CC(N)=O)C(=O)N[C@@H](CO)C(=O)N[C@H](Cc1ccc(O)cc1)C(=O)N[C@@H](CCCNC(=N)N)C(=O)N[C@@H](CCCCN)C(=O)N[C@H](C(=O)N[C@@H](CC(C)C)C(=O)N[C@H](C)C(=O)N[C@@H](CCC(N)=O)C(=O)N[C@@H](CC(C)C)C(=O)N[C@@H](CO)C(=O)N[C@@H](C)C(=O)N[C@@H](CCCNC(=N)N)C(=O)N[C@@H](CCCCN)C(=O)N[C@@H](CCCCN)C(=O)N[C@@H](CC(C)C)C(=O)N[C@@H](CCC(N)=O)C(=O)N[C@@H](CC(=O)O)C(=O)N[C@H](C(=O)N[C@@H](CCSC)C(=O)N[C@@H](CO)C(=O)N[C@@H](CCCNC(=N)N)C(N)=O)[C@@H](C)CC)C(C)C)[C@@H](C)O` [GHRH analogue #5, [D-Ala^2, D-Tyr^10, D-Ala^15, Lys^22] hGHRH(1-29)-NH2] (H-Y[dA]DAIFTNS[dY]RKVL[dA]QLSARKKLQDIMSR-NH2), the “in vivo potency compared with the natural 44 amino acid GHRH” value in series [1] (in vivo, conclusion) is “at least two times more potent”. Also, the “GH secretion compared with response to natural hGHRH(1-44)NH2” value in series [1] (rat, pulse amplitude and AUC) is on record as “twice larger”. Besides, the remaining at 1 h, 15 µM was found to be 92% in series [2] (Mean residual amount); 50 ± 3% in series [4] (male, Sprague Dawley, diluted 1/100, incubation 60 min, read-out: Residual concentration); 88% in series [5] (human, pooled human serum, human serum, incubation time 60 min, read-out: Mean residual amount). Moreover, the remaining at 2 h, 15 µM in series [2] (Mean residual amount) was 84%; in series [5] (human, pooled human serum, human serum, incubation time 120 min, read-out: Mean residual amount) it was 76%. The remaining at 3 h, 15 µM came to 78% in series [2] (Mean residual amount); 74 ± 7% in series [2] (Residual peptide concentration); 62 ± 2% in series [5] (human, pooled human serum, 180-min incubation in human serum, read-out: Residual peptide concentration (180 min)); 63% in series [5] (human, pooled human serum, human serum, incubation time 180 min, read-out: Mean residual amount). The remaining at 7 h, 15 µM in series [2] (Mean residual amount) turned out to be 75%; in series [5] (human, pooled human serum, human serum, incubation time 420 min, read-out: Mean residual amount), 50%. For the same molecule, the IC50 result in series [3] (Table 7, mean±SEM of 3 experiments (analogue) or 2 experiments (hGHRH(1-44)NH2) in triplicate) is reported as “no significant difference was observed”. In addition, in series [3] (ratio IC50 of hGHRH(1-29)-NH2/IC50 analogue, mean±SEM), the “Relative binding affinity (R1) in comparison with hGHRH(1-29)NH2 in BHK cells expressing the hGHRH receptor” value is recorded as 939 ± 249. Further, the Residual concentration in series [4] (incubation 0 min) is listed as 100 ± 0 % of initial concentration; in series [4] (incubation 60 min), “significantly higher than that of either GHRH analogue 1, 2 or 3”. For the same molecule, in series [4] (male, Sprague Dawley, diluted 1/100, incubation 8 min, read-out: Residual concentration), the remaining at 8 min, 15 µM turned out to be 92 ± 5%. Further, the remaining at 0.25 h, 15 µM in series [4] (male, Sprague Dawley, diluted 1/100, incubation 15 min, read-out: Residual concentration) turned out to be 82 ± 6%. In addition, the remaining at 0.5 h, 15 µM in series [4] (male, Sprague Dawley, diluted 1/100, incubation 30 min, read-out: Residual concentration) was determined as 74 ± 7%. The “R2 (60 min): Relative resistance to in vitro proteolysis in comparison with hGHRH(1-29)NH2” value in series [5] (60-min incubation in human serum) amounted to 1.55 ± 0.04. Further, the “R2 (180 min): Relative resistance to in vitro proteolysis in comparison with hGHRH(1-29)NH2” value in series [5] (180-min incubation in human serum) was 2.93 ± 0.87. The Mean residual amount in series [5] (human serum, incubation time 0 min) is 100%; in series [5] (human serum, incubation time 420 min), 50%.
